Our source for the EC50 values is patent US20080020368A1, “Method and apparatus for exposing cells to different concentrations of analytes or drugs” (priority 2006, published 2008).

For this assay, the system named is HL60 cells. The assay can be described thus: On-chip TMR study: laser-enhanced TMR fluorescence response of docked cells in tapered microchannel device. In kind it is cell-based. The settings on record: Homo sapiens, HL-60, light or radiation study; HL60 cells docked on upper sandbag, on-chip serial dilution of TMR, fast Helium-Neon laser irradiation (~70 ms/ROI) for 3 more minutes; 50% intensity; read-out: EC50 of TMR concentration required to trigger the enhanced fluorescence response. An excerpt:
It was the highly compact design of this microdevice that facilitated the comparative study between large amounts of cells on two sandbag components. […] However, only a region of interest (ROI) on the upper sandbag was subjected to fast laser irradiation (˜70 ms/ROI of Helium-Neon laser) for 3 more minutes. A confocal image of both sandbags after the fast irradiation was developed.
Furthermore, despite the large ROI coverage over the upper sandbag, the enhanced response was evidenced for the cells incubated at higher TMR concentration near the sandbag rear. Therefore, the conclusion is that the enhanced response was at least related to 1) concentration of TMR and 2) the amount of laser irradiation.
Referring to FIG. 30, photomicrographs are shown one on top of the other, with the top photomicrograph showing cells docked on both sandbags but only those encircled by the black dotted framework are subjected to laser irradiation. […] The purpose of these photomicrographs is to show the power of the microchip to perform rapid analysis and retrieve effective concentration of a photodynamic therapy drug candidate that is sensitive to light irradiation.
The response profiles of cells docked on the upper and lower sandbags of FIG. 30 are plotted in FIG. 31. […] Note further that there is an average peak in intensity at a 3.73 μM at 50% intensity. […]

For the molecule `CN(C)c1ccc2c(-c3ccc(CCl)cc3)c3ccc(=[N+](C)C)cc-3oc2c1` [TMR, Tetramethylrosamine], the EC50 worked out at 3.73 µM.
